According to patent US20040138315A1 (priority 2000, published 2004):

Assays:
[1] = test system: PMA-induced aggregation of platelet rich plasma (phorbol ester receptor); assay: Phorbol ester, platelet aggregation (461500); type: cell-based, rabbit; conditions: for ANT. (antagonist response), phorbol ester platelet aggregation / AG. (agonist response), phorbol ester platelet aggregation: 30 μM, platelet rich plasma, rabbit; for AG. (agonist response), phorbol ester platelet aggregation: relative to PMA 0.5 μM
Procedure: (§1) Test compounds referred to above were evaluated for inhibition of platelet aggregation induced by adenosine diphosphate, arachidonic acid, phorbol ester and Platelet Activating Factor (PAF) at […]. The following methods were employed in this analysis, and reference compounds for the respective assays are indicated in Appendix 1:
(§2) Venous blood obtained from male or female New Zealand derived albino rabbits weighing 2.5-3 kg is mixed with one-tenth volume of trisodium citrate (0.13 M) and centrifuged at room temperature for 10 min at 220 g. Test substance (30 μM)-induced aggregation of the supernatant platelet rich plasma by 50 percent or more (≧50%) within 5 min, relative to control phorbol myristate acetate (PMA, 0.5 μM) response at 37° C. as measured by an optical aggregometer, indicates possible phorbol ester receptor agonist activity.
At a test substance concentration where no significant agonist activity is seen, ability to reduce the PMA (0.5 μM)-induced maximum non-reversible aggregation response by 50 percent or more (>50%) indicates phorbol ester receptor antagonist activity.

[2] = test system: arachidonic acid-induced aggregation of platelet rich plasma; assay: Arachidonic acid, platelet aggregation (412510); type: cell-based, rabbit; conditions: for ANT. (antagonist response), arachidonic acid platelet aggregation / AG. (agonist response), arachidonic acid platelet aggregation: 30 μM, platelet rich plasma, rabbit; for AG. (agonist response), arachidonic acid platelet aggregation: relative to 100 μM arachidonic acid
Procedure: as §1
Venous blood obtained from male or female New Zealand derived albino rabbits weighting 2.5-3 kg was mixed with one-tenth volume of trisodeium citrate (0.13M) and centrifuged at room temperature for 10 min at 220 g. Test substance (30 μM)-induced aggregation of the supernatant platelet rich plasma by 50 percent or more (≧50%) within 5 min, relative to 100 μM arachidonic acid response at 37° C. as measured by an optical aggregometer indicates possible agonist activity.
At a test substance concentration where no significant agonist activity is seen, ability to reduce the arachidonic acid-induced maximum non-reversible aggregation response by 50 percent or more (>50%) was indicative of antagonist activity.

[3] = test system: adenosine diphosphate-induced aggregation of platelet rich plasma (ADP receptor); assay: Adenosine diphosphate, platelet aggregation (404010); type: cell-based, rabbit; conditions: for ANT. (antagonist response), ADP platelet aggregation / AG. (agonist response), ADP platelet aggregation: 30 μM, platelet rich plasma, rabbit; for AG. (agonist response), ADP platelet aggregation: relative to […] ADP
Procedure: as §1
Venous blood obtained from male or female New Zealand derived albino rabbits weighing 2.5-3 kg was mixed with one-tenth volume of trisodium citrate (0.13 M) and centrifuged at room temperature for 10 min at 220 g. Test substance (30 EM)-induced aggregation of the supernatant platelet rich plasma by 50 percent or more (>50%) more relative to 1.2 μM adenosine diphosphate control response at 37° C. as mearsured by an optical aggregometer, indicates possible ADP receptor agonist activity.
At a test substance concentration where no significant agonist activity is seen, ability to reduce the adenosine diphosphate-induced maximum non-reversible aggregation response by 50 percent or more (≧50%) was indicative of ADP receptor antagonist activity.

Cannabinoid CB1 = target: T1, Cannabinoid CB1 (Mus musculus, UniProt P47746); assay: Cannabinoid CB1 tissue assay, vas deferens (416000); type: cell-based
T1 construct: tissue 416000; host or cells: vas deferens

[4] = test system: PAF-acether-induced aggregation of platelet rich plasma (PAF receptor); assay: PAF, platelet aggregation (463010); type: cell-based, rabbit; conditions: for ANT. (antagonist response), PAF platelet aggregation / AG. (agonist response), PAF platelet aggregation: 30 μM, platelet rich plasma, rabbit; for AG. (agonist response), PAF platelet aggregation: relative to 5 nM PAF-acether
Procedure: as §1
as §2, with “temperture” for “temperature”, “Substance” for “substance”, “5 nM platelet activating factor-acether (PAF-acether)” for “phorbol myristate acetate (PMA, 0.5 μM)”, “37[…]” for “37° C.”, “PAF” for “phorbol ester”
At a test substance concentration where no significant agonist activity is seen, ability to reduce the PAF-acether-induced maximum non-reversible aggregation response by 50 percent or more (≧50%) indicates PAF receptor antagonist activity.

thromboxane A2 synthase = target: T2, thromboxane A2 synthase (Oryctolagus cuniculus, UniProt G1TAZ9); assay: Thromboxane A2 synthase inhibition, TXB2 radioimmunoassay (194000); type: biochemical, rabbit; conditions: screened at 100 μM
T2 sequence (G1TAZ9 1-530): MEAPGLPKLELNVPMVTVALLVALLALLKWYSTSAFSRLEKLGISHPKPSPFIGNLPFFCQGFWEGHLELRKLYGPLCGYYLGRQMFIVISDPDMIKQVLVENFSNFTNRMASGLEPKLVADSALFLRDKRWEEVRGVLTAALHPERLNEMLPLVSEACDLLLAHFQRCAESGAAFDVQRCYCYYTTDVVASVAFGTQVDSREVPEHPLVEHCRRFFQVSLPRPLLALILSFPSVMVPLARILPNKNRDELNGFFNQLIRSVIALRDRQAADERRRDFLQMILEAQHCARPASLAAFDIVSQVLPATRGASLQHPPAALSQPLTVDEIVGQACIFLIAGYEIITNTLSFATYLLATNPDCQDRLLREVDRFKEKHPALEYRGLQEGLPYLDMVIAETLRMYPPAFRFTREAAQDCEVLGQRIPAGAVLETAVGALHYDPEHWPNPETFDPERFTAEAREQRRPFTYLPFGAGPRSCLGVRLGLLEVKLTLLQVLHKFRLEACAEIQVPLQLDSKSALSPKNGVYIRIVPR
Procedure: Test compounds (IG-1 through IG-11) were evaluated for their ability to inhibit cyclooxygenase COX-1, cyclooxygenase COX-2, and thromboxane synthase. In these assays, in addition to the designations set forth above, IG-05 refers to resorcinol and IG-06 refers to orcinol.
To assess Thromboxane A2 synthase, thromboxane A2 synthase isolated from a microsomal fraction of rabbit platelets by conventional centrifugation was used. The test compound and/or vehicle was incubated with 1:200 dilution of thromboxane A2 synthase and 5 ng prostaglandin G2 as substrate in Tris buffer pH 7.5 for 30 minutes at 37° C. The thromboxane A2 formed is immediately converted to thromboxane B2, which was quantitated by a radioimmunoassay. Compounds are screened at 100 μM.

cyclooxygenase COX-1 = target: T3, cyclooxygenase COX-1 (Homo sapiens, UniProt P23219); assay: Cyclooxygenase COX-1 inhibition in human platelets, PGE2 EIA (116010); type: cell-based; conditions: screened at 10 μM
T3 construct: host or cells: human platelets
Procedure: In these assays, in addition to the designations set forth above, IG-05 refers to resorcinol and IG-06 refers to orcinol.
To assess COX-1 inhibition, test compound and/or vehicle was incubated with human platelets (5×10^7/well) for 15 minutes at5 37° C. Calcium ionophore A23187 (10 μM) was added to induce the arachidonic acid cascade. After another 15 minutes incubation at 37° C., PGE2 levels in the supernatant were quantiated using the Amersham EIA kit. Compounds were screened at 10 μM.

T1 sequence (P47746 whole entry): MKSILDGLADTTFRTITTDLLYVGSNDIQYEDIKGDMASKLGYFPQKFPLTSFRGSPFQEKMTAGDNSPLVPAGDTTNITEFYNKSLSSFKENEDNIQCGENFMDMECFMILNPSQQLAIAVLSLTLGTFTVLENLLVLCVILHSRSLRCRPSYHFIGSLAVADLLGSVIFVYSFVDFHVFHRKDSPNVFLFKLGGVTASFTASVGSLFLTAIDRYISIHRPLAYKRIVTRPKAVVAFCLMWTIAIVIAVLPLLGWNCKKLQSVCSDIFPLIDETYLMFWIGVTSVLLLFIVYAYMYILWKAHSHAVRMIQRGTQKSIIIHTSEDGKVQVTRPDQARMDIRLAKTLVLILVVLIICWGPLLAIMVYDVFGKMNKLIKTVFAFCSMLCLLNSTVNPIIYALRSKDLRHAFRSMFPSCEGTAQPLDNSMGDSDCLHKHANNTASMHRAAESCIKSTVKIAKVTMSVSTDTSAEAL
T3 sequence (P23219 24-599): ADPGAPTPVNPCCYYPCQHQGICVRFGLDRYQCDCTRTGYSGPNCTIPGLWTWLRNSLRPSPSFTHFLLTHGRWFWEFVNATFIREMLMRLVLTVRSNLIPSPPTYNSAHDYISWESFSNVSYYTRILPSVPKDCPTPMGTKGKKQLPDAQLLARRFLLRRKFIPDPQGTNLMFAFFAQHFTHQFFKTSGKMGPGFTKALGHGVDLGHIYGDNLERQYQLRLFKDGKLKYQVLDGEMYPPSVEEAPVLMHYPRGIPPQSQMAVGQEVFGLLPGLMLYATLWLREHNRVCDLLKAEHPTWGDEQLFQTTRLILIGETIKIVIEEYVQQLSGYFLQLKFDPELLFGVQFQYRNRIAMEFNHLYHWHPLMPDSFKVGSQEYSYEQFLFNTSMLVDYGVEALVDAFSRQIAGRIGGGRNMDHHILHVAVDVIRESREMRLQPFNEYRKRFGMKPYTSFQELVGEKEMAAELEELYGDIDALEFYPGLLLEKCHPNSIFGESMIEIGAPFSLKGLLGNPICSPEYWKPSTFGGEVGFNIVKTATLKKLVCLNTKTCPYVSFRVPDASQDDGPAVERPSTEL

## CCCCCCCCCCCCCC(=O)O[C@@H]1[C@@H](C)[C@@]2(O)[C@@H](C=C(CO)C[C@]3(O)C(=O)C(C)=C[C@@H]23)[C@@H]2C(C)(C)[C@]12OC(C)=O [PMA, phorbol myristate acetate, reference compound]
[1]; 0.5 μM, batch 27699
  Concurrent RESP., reference compound, phorbol ester platelet aggregation - Agonist: 100

## CCCCC/C=C\C/C=C\C/C=C\C/C=C\CCCC(=O)O [Arachidonic Acid, reference compound]
[2]; 100 μM, batch 27731
  Concurrent RESP., reference compound, arachidonic acid platelet aggregation - Agonist: 100

## Cc1ccc2c(c1)-c1c(O)cc(C(C)(C)CCCC(C)C)cc1OC2(C)C [IG-11, 3-Norpentyl-3-(1,1,5-trimethylhexyl)cannabinol]
[3]
  ANT. (antagonist response), ADP platelet aggregation: 0%
  AG. (agonist response), ADP platelet aggregation: 0%
Cannabinoid CB1; 30 μM
  AG. (agonist response), Cannabinoid CB1: 102%
[4]
  ANT. (antagonist response), PAF platelet aggregation: 11%
  AG. (agonist response), PAF platelet aggregation: 0%
Thromboxane A2 synthase
  Thromboxane synthase inhibition (in words): significantly inhibit thromboxane synthase
[2]
  ANT. (antagonist response), arachidonic acid platelet aggregation: 0%
  AG. (agonist response), arachidonic acid platelet aggregation: 0%
[1]
  ANT. (antagonist response), phorbol ester platelet aggregation: 8%
  AG. (agonist response), phorbol ester platelet aggregation: 0%

## CCCCC/C=C\C/C=C\C/C=C\C/C=C\CCCC(=O)NCCO [Anandamide, reference compound]
Cannabinoid CB1; 0.1 μM, batch 27098
  Concurrent RESP., reference compound, Cannabinoid CB1 - Agonist: 100

## CC1=CCC2C(C1)c1c(O)cc(C(C)(C)CCCC(C)C)cc1OC2(C)C (stereo not drawn) [IG-9, 3-Norpentyl-3-(1,1,5-trimethylhexyl)-Δ 8-tetrahydrocannabinol]
[3]
  ANT. (antagonist response), ADP platelet aggregation: 7%
  AG. (agonist response), ADP platelet aggregation: 0%
[4]
  ANT. (antagonist response), PAF platelet aggregation: 4%
  AG. (agonist response), PAF platelet aggregation: 0%
[2]
  ANT. (antagonist response), arachidonic acid platelet aggregation: 0%
  AG. (agonist response), arachidonic acid platelet aggregation: 0%
[1]
  ANT. (antagonist response), phorbol ester platelet aggregation: 4%
  AG. (agonist response), phorbol ester platelet aggregation: 0%

## CN[C@@H]1C[C@H]2O[C@@](C)([C@@H]1OC)n1c3ccccc3c3c4c(c5c6ccccc6n2c5c31)C(=O)NC4 [Staurosporine, reference compound]
[1]; 3 μM, batch 27699
  Concurrent RESP., reference compound, phorbol ester platelet aggregation - Antagonist: 100

## CC(C)CCCC(C)(C)c1cc(O)cc(O)c1
other
  melting point: 95 to 96 °C

## Cc1cc(O)cc(O)c1 [IG-6, orcinol]
Cyclooxygenase COX-1
  COX-1 inhibition (in words): potent inhibitors of COX-1

## COc1cc(C(C)(C)CCCC(C)C)cc(OC)c1O [IG-2, 4-(1,1,5-trimethylhexyl)-2,6-dimethoxyphenol]
Cyclooxygenase COX-1
  COX-1 inhibition (in words): potent inhibitors of COX-1

## Nc1nc(Cl)nc2c1ncn2[C@@H]1O[C@H](CO)[C@@H](O)[C@H]1O [2-Chloroadenosine, reference compound]
[3]; 10 μM, batch 27737
  Concurrent RESP., reference compound, ADP platelet aggregation - Antagonist: 90

## Cc1nnc2n1-c1sc(CCC(=O)N3CCOCC3)cc1C(c1ccccc1Cl)=NC2 [WEB-2086, reference compound]
[4]; 0.3 μM, batch 27927
  Concurrent RESP., reference compound, PAF platelet aggregation - Antagonist: 97

## COc1ccc2c(c1)c(CC(=O)O)c(C)n2C(=O)c1ccc(Cl)cc1 [Indomethacin, reference compound]
[2]; 0.3 μM, batch 27731
  Concurrent RESP., reference compound, arachidonic acid platelet aggregation - Antagonist: 100

## CCCCCCCCCCCCCCCCOC[C@H](COP(=O)([O-])OCC[N+](C)(C)C)OC(C)=O [PAF, platelet activating factor-acether, reference compound]
[4]; 5 nM, batch 27927
  Concurrent RESP., reference compound, PAF platelet aggregation - Agonist: 100

## COc1cc(C(C)(C)CCCC(C)C)cc(OC)c1OC [IG-7, 1-(1,1,5-Trimethylhexyl)-3,4,5-trimethoxybenzene]
[3]
  ANT. (antagonist response), ADP platelet aggregation: 11%
  AG. (agonist response), ADP platelet aggregation: 0%
Cannabinoid CB1; 30 μM
  AG. (agonist response), Cannabinoid CB1: −106%
  ANT. (antagonist response), Cannabinoid CB1: 100%
[4]
  ANT. (antagonist response), PAF platelet aggregation: 4%
  AG. (agonist response), PAF platelet aggregation: 0%
[2]
  ANT. (antagonist response), arachidonic acid platelet aggregation: 0%
  AG. (agonist response), arachidonic acid platelet aggregation: 0%
[1]
  ANT. (antagonist response), phorbol ester platelet aggregation: 9%
  AG. (agonist response), phorbol ester platelet aggregation: 0%
